Values of other authors as cited in US9999656B2, “Treatment of short bowel syndrome patients with colon-in-continuity” (Shire-NPS Pharmaceuticals, Inc., priority 2004, dated 2018).

Experiments:
[1] = GLP-2; approximately; cited from earlier work
[2] = test system: SBS jejunostomy patients; settings: cited from earlier work

For glucagon-like peptide-2 [native GLP-2], the half-life [1] is listed as “approximately seven”, the “effect on wet weight absorption” value ([2]; native GLP-2 400 μg twice daily for 35 days, p=0.040) is listed as 420 ± 480 g/day and the “intestinal wet weight absorption (in words)” value ([2]; open-label study, pharmacologic doses, SBS jejunostomy patients (Jeppesen et al.)) is listed as “significant improvement in intestinal wet weight absorption”.
